In patent publication US20090176776A1, “SMALL MOLECULE INHIBITORS OF HIV-1 CAPSID ASSEMBLY” (UNIVERSITY OF ALABAMA AT BIRMINGHAM, priority 2005, published 2009):

Assays:
[1] = target: C-terminal domain of the CA protein (Human immunodeficiency virus type 1 group M subtype B, UniProt P12493); details: 1 mM compound, 0.02 mM protein domain; peaks at 5.5 ppm and 8 ppm
Source text: (§1) The STD-NMR spectroscopy is an extremely powerful and sensitive technique to detect and identify the binding of low molecular weight (MW) ligands specific to a target protein of interest. […] This technique exploits the transfer of radio frequency saturation of the proton magnetization on the large protein to the low MW ligand during the brief period it resides within the binding pocket of the protein, before it is released into solution. It also exploits the large differences in the correlation times of the interacting molecules.

[2] = target: N-terminal domain of the CA protein (Human immunodeficiency virus type 1 group M subtype B, UniProt P12493); details: 1 mM compound; peaks at 5.5 ppm and 8 ppm
Source text: as §1

293T cells = assay: Toxicity in 293T cells; type: cell-based, human; set-up: unit not given beside the values
Procedure: Anti-HIV Assays (Single Round). The inhibitory effect of the compounds on virus production and infectivity were determined by measuring the level of p24 produced in the presence of various concentrations of compounds from HEK-293 cells transiently transfected with pNL43 and by titering the virus on TZM-b1 cells. Briefly, 2.5×10^5 HEK-293 cells/ml were transfected with pNL43 using FuGene 6. Four hours post transfection the cells were plated in 96-well plates containing 100 μl of various concentrations of compounds (0-75 μM or 0-300 μM for mock transfected cells) in triplicate. At 72-hours post transfection virus supernatant was collected and stored at −80° C. until analysis. The level of p24 produced at each compound concentration was determined relative to the level produced in the presence of the DMSO only controls using HIV-1 p24 enzyme-linked immunosorbent assay (ELISA) (Beckman-Coulter). To determine the infectivity of the virus produced TZM-b1 cells were plated at 1×10^5 cells/ml in 100 μL in 96-well plates overnight. The next day, the media was replaced with 75 μL DMEM supplemented with 1% FBS, 1× PSG and 40 μg/ml DEAE Dextran and 25 μL of viral supernatant from the HEK-293 cells was added to each well. Three hours later 100 μL of DMEM with 7% FBS was added to each well. Two days after infection the cells were lysed and the level of luciferase expression was determined using the Bright-Glo assay.
FIGS. 12-18 show the anti-HIV assays for the examples of chemical compounds used according to the invention. After in-vitro assay, the chemical compounds in FIGS. 12-18 were selected for screening for cell viability and toxicity. Jurkat cells assay was used as screening assay. In Jurkat cells assay, JLTRG-R5 cells were used as Indicator cells and MOLT4 cells as Producer cells of NL43 and BAL virus. 96 chemical compounds were plated at seven different concentration from 75 μM to 0 μM at three-fold serial dilutions in 384 well plate. After five days, GFP expression was read. Cell viability was monitored with Alamar Blue assay. Luc M7 assay was designed to measure inhibitory activity of the chemical compounds to viral replication. After infection of cells with YU2 virus, plate cells in 96-well plate in the presence of six concentration of compounds in DMSO. At day 6, the number of cells in wells were read with Cell Titer Glo kit or by counting the number of cells infected with Bright Glo kit. 293T cells assay was designed to determine the toxicity. 293T cells were transfected with NL43. After four hours, transfected cells were plated in 96-well plate in DMSO and 2 μM Indinavir. 72 hours later, viral supernatant was collected and plated on JC53BL. Luciferase expression was measure after two days and p24 analysis was conducted with 1:1000 and 1:2000 dilutions.

[3] = target: T1, recombinant HIV-1 capsid protein (CA) (Human immunodeficiency virus type 1 group M subtype B, UniProt P12493); assay: Turbidity based HIV-1 capsid assembly assay; type: biochemical; details: initial assembly rate by turbidity; twofold dilutions over a 128 fold range; 30 μM CA, 2.25 M NaCl
T1 construct: recombinant HIV-1 capsid protein (CA); made in house
Procedure: The kinetics can be followed by monitoring the increase of turbidity using a spectrophotometer. The IC50 of the chemical compound tested is determined by titration. As the C-domain inhibits capsid assembly by forming CA-C-domain heterodimers, the effect of added C-terminal domain on the rate of assembly was evaluated by plotting the rate of assembly versus C-terminal domain concentration.
Soluble HIV-1 capsid protein can be triggered to assemble into tubes similar in diameter and morphology to intact cores by dilution into high iconic strength buffer. The kinetics of assembly can be followed by monitoring the increase in turbidity using a spectrophotometer (Lanham et al., J. Virol., 76:6900, 2002). This assembly assay was adapted to a 96-well, microplate format to allow for medium-throughput screening of compounds by measuring turbidity in a Nepeloskan Ascent plate reader (Thermo Electron Corp., UK). A DIVERSet™ library of 10,000 low molecular weight, “drug-like” compounds was purchased from ChemBridge Corp. (San Diego, Calif.). This library was selected for its potential bioavailability and application based on a pharmacophore diversity analysis. The average molecular weight of the compounds is 347 g/mol, the range being 200-596 g/mol. The compounds came plated in 96-well plates and solubilized in DMSO at 5 mgs/mL.
Turbidity based assay. A 1.5 μL aliquot of compound was diluted 90-fold into 50 mM Na2HPO4, […] buffer, pH 8 in an optically clear 96-well plate. The plate containing compounds and salt was read to check for compound solubility and to serve as a background reading for the assay. To initiate the assembly reaction, 15 μL of […] stock (in 50 mM Na2HPO4 pH 8) of recombinant HIV-1 capsid protein (CA), purified as described (Lanman et al., J. Virol., 76:6900, 2002), was added to each well of the 96-well plate using a multi-channel pipettor. […] Furthermore, the halftime of the assembly reaction is ˜5 minutes so reading the plate in thirds prevented loss of initial rate data. Therefore, CA was added to the first 4 lanes, the reactions followed for ten minutes, reading was paused, CA was then added to the next four lanes and the process repeated. Instrument settings are as follows: PMT gain of 500 V, lamp at 10V, and integration time of 60 ms. The data were exported to a custom designed Excel spreadsheet that allowed simultaneous plotting of kinetic curves.
Recombinant CA protein was purified as previously described and stored at 300 μM at −80° C. A turbidity based assembly assay, described above, was adapted to a 96-well, microplate format to allow for medium-throughput screening of compounds in a Nepheloskan Ascent plate reader (Thermo Electron Corp., UK). A 1.5 μL aliquot of compound or DMSO was diluted 90-fold into 50 mM Na2HPO4, 2.25 M NaCl buffer, pH 8 in an optically clear 96-well plate. To initiate the assembly reaction, 15 μL of the 300 μM stock (in 50 mM Na2HPO4 pH 8) of recombinant HIV-1 capsid protein (CA), was added to each well of the 96-well plate using a multi-channel pipettor.

Cc1ncc(C[n+]2csc(CCOC(=O)C3C4CC5CC(C4)CC3C5)c2C)c(N)n1.Cl.[Cl-] (stereo not shown) [Compound 26]
binding to the CTD domain (STD-NMR) [1]: binding of the chemical compound 26 to the CTD domain is clearly indicated | binding to the NTD domain (STD-NMR) [2]: binds to the NTD domain | TC50% (293T cells): 193 | IC50 [3]: 28 µM
